Values of other authors, collected in patent US8895756B2, “Bendamustine pharmaceutical compositions” (priority 2005, dated 2014).

Conditions: pure tertiary butanol vs pure acetic acid, dimethyl sulfoxide, methylhydroxy, water or TBA/water mixtures; cited from earlier work

For CN(CC(N)=O)C(=O)N(CCCl)N=O [SarCNU], the “relative stability in solvents” value is listed as “more stable in pure tertiary butanol”.
